Test results published in patent publication US20260209249A1, “NOVEL TRICYCLIC COMPOUND AS KRAS G12D INHIBITOR, AND USE THEREOF” (SK Biopharmaceuticals Co., priority 2022, published 2026).

Assays:
[1] = target: T1, GppNHp-KRAS G12D mutant protein (Homo sapiens, UniProt P01116, G12D); experiment: Differential scanning fluorimetry (DSF) binding affinity to GppNHp-KRAS G12D mutant protein; details: DSF thermal shift, 10 μM compound, 4 μg KRAS protein, 50 mM HEPES (pH 7.5)
T1 construct: purchased Daegu Gyeongbuk Medical Innovation Foundation (DGMIF), made to order
Outline: (§1)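 Thermal shift ΔTm was measured at 10 μM compound over a 25–99 °C ramp (0.05 °C/s), read at 580 nm ex/623 nm em with SYPRO Orange (2×). The protein (4 μg) was preincubated with compound for 30 min at room temperature, in 50 mM HEPES pH 7.5 for GppNHp-KRAS G12D or in kit buffer for GDP-KRAS G12D.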

[2] = system: ERK phosphorylation (pERK) induced by KRAS G12D mutation; experiment: Inhibitory activity against ERK phosphorylation (pERK) induced by KRAS G12D mutation, immunofluorescence assay in AsPC-1 cells; assay type: cell-based; details: Homo sapiens, ASPC1, 3 h drug treatment, pERK (Thr202/Tyr204) signal normalized to DAPI
Excerpt: Test Example 2: Measurement of Inhibitory Activity Against ERK Phosphorylation (pERK) Induced by KRAS G12D Mutation (Immunofluorescence Assay)
Immunofluorescence is a method used to detect specific substances within cells or tissues through antigen-antibody interactions, and allows for the identification of the presence or absence of specific proteins by using antibodies labeled with various fluorescent dyes. After a primary antibody that recognizes a specific protein selectively binds to the epitope, a fluorescent antibody (secondary antibody) is bound to the primary antibody.
It was confirmed as follows that the compounds according to an embodiment of the present application inhibit phosphorylation of extracellular signal-regulated kinases (Phospho-ERK, pERK) induced by KRAS G12D mutation.
AsPC-1 cells were seeded at a density of 10,000 cells/well in RPMI-1640 medium containing 10% FBS and 1% Penicillin-Streptomycin in 384-well plates (Perkinelmer, #6057300) and allowed to attach for 16 h. After the cells attached to the plate, the cells were treated with drugs at a maximum concentration of 10 μM with a 3-fold serial dilution. After 3 h of drug treatment, the medium was removed and the cells were treated with 50 μL of 4% formaldehyde (Biosesang, #PC2031-050-00) for 20 min and washed three times with 50 μL of phosphate buffered saline (PBS).
50 μL of PBS containing 0.3% Triton X-100 (Sigma, #T8787-250 mL) was added and reacted for 20 minutes to allow antibody penetration into cells, and then the plate was washed three times with 50 μL of PBS. To block nonspecific binding of antibodies to the plate, 50 μL of PBS containing 2% BSA (sigma, #A7906-500G) and 0.01% Tween-20 (Sigma, #P1379-500 mL) (hereinafter referred to as PBS-T) was added, and reacted at room temperature for 2 hours.
To detect pERK, the primary antibody (cell signaling, #9101) was diluted 1:500 in PBS-T containing 2% BSA, 50 μL was added, and the plate was stored in a refrigerator at 4° C. for 16 hours to react, followed by washing three times with 50 μL of PBS-T. To visualize the primary antibody, the secondary antibody, i.e., anti-rabbit-Alexa Fluor 488 (ThermoFisher, #A11008), was diluted 1:1000 in PBS-T containing 2% BSA, 50 μL was added, and after reaction at room temperature for 1 hour, the plate was washed three times with 50 μL of PBS-T. Next, to visualize the nuclei of cells, DAPI (Thermofisher, #62248, 1 mg/mL) was diluted 1:1000 in PBS-T, 50 μL each was added, reacted at room temperature for 10 minutes, and washed three times with 50 μL of PBS-T. 50 μL of PBS-T was added to each well, and the plate was read for fluorescence value using HCS equipment (MOLECULAR DEVICES/ImageXpress Micro).
Data analysis was performed by normalizing the pERK (Thr202/Tyr204) signal to the DAPI signal and calculating the percentage relative to the DMSO as a control. The IC50 value was determined by fitting a four-parameter dose-response curve using the GraphPad Prism software (version 8.4.3), and interpolating the concentration at which 50% inhibition occurred. The results of calculating the inhibitory efficacy of the compounds according to one embodiment of the present application against KRAS G12D mutation-induced pERK activity are shown in Table 3.

[3] = target: T2, GDP-KRAS G12D mutant protein (Homo sapiens, UniProt P01116, G12D); experiment: Differential scanning fluorimetry (DSF) binding affinity to GDP-KRAS G12D mutant protein; details: DSF thermal shift, 10 μM compound, 4 μg KRAS protein
T2 construct: purchased Daegu Gyeongbuk Medical Innovation Foundation (DGMIF), made to order
Outline: as §1

Row | Structure (SMILES) | GppNHp-KRAS G12D (ΔTmD, ° C.) [1] | IC50 [2] | GDP-KRAS G12D (ΔTmD, ° C.) [3]
1 | Oc1cc(-c2cc3nc(OC[C@@]45CCCN4C[C@H](F)C5)nc(N4C[C@H]5CC[C@@H](C4)N5)c3n3ccnc23)c2c(F)c(F)ccc2c1 [Example 3, 4-(1-((1 R,5S)-3,8-diazabicyclo[3.2.1]octan-3-yl)-3-(((2R,7aS)-2-fluorotetrahydro-1H-pyrrolizin-7a(5H)-yl)methoxy)imidazo[1′,2′:1,6]pyrido[3,2-d]pyrimidin-6-yl)-5,6-difluoronaphthalen-2-ol] | 1.90 °C | 1.42 µM | 6.05 °C
2 | CN(C)C1(CNc2nc(OC[C@@]34CCCN3C[C@H](F)C4)nc3cc(-c4cc(O)cc5ccc(F)c(F)c45)c4nccn4c23)CCC1 [Example 5, 4-(1-(((1-(dimethylamino)cyclobutyl)methyl)amino)-3-(((2R,7aS)-2-fluorotetrahydro-1H-pyrrolizin-7a(5H)-yl)methoxy)imidazo[1′,2′:1,6]pyrido[3,2-d]pyrimidin-6-yl)-5,6-difluoronaphthalen-2-ol] | 1.60 °C | 0.953 µM | 4.27 °C
3 | C#Cc1c(F)ccc2cc(O)cc(-c3cc4nc(OC[C@@]56CCCN5C[C@H](F)C6)nc(NCC5(N(C)C)CCC5)c4n4ccnc34)c12 [Example 6, 4-(1-(((1-(dimethylamino)cyclobutyl)methyl)amino)-3-(((2R,7aS)-2-fluorotetrahydro-1H-pyrrolizin-7a(5H)-yl)methoxy)imidazo[1′,2′:1,6]pyrido[3,2-d]pyrimidin-6-yl)-5-ethynyl-6-fluoronaphthalen-2-ol] | – | 2.32 µM | –
4 | C#Cc1c(F)ccc2cc(O)cc(-c3cc4nc(OCC5(CN6C[C@H]7C[C@@H]6CO7)CC5)nc(N5C[C@H]6CC[C@@H](C5)N6)c4n4ccnc34)c12 [Example 10, 4-(3-((1-(((1 R,4R)-2-oxa-5-azabicyclo[2.2.1]heptan-5-yl)methyl)cyclopropyl)methoxy)-1-((1 R,5S)-3,8-diazabicyclo[3.2.1]octan-3-yl)imidazo[1′,2′:1,6]pyrido[3,2-d]pyrimidin-6-yl)-5-ethynyl-6-fluoronaphthalen-2-ol] | 2.79 °C | 2.1 µM | 9.00 °C
5 | C#Cc1c(F)ccc2cc(O)cc(-c3cc4nc(OCC5(CN6CCCC6)CC5)nc(N5[C@@H]6CC[C@H]5CNC6)c4n4ccnc34)c12 [Example 17, 4-(1-((1R,5S)-3,8-diazabicyclo[3.2.1]octan-8-yl)-3-((1-(pyrrolidin-1-ylmethyl)cyclopropyl)methoxy)imidazo[1′,2′:1,6]pyrido[3,2-d]pyrimidin-6-yl)-5-ethynyl-6-fluoronaphthalen-2-ol] | 4.71 °C | 1.17 µM | 9.45 °C
6 | C#Cc1c(F)ccc2cc(O)cc(-c3cc4nc(OC[C@]56CCCN5CC(=C)C6)nc(N5[C@@H]6CC[C@H]5CNC6)c4n4ccnc34)c12 [Example 21, 4-(1-((1R,5S)-3,8-diazabicyclo[3.2.1]octan-8-yl)-3-(((R)-2-methylenetetrahydro-1H-pyrrolizin-7a(5H)-yl)methoxy)imidazo[1′,2′:1,6]pyrido[3,2-d]pyrimidin-6-yl)-5-ethynyl-6-fluoronaphthalen-2-ol] | 4.72 °C | 0.196 µM | 8.13 °C
7 | Cc1cc2c(o1)c(-c1cc(O)cc3ccccc13)c(F)c1nc(OC[C@@]34CCCN3C[C@H](F)C4)nc(N3C[C@H]4CC[C@@H](C3)N4)c12 [Example 43, 4-(1-((1R,5S)-3,8-diazabicyclo[3.2.1]octan-3-yl)-5-fluoro-3-(((2R,7aS)-2-fluorotetrahydro-1H-pyrrolizin-7a(5H)-yl)methoxy)-8-methylfuro[3,2-f]quinazolin-6-yl)naphthalen-2-ol] | 4.27 °C | 0.953 µM | 9.30 °C
8 | Cc1cc2c(o1)c(-c1cc(O)cc3ccccc13)c(F)c1nc(OC[C@@]34CCCN3C[C@H](F)C4)nc(NCC3(N(C)C)CCC3)c12 [Example 47, 4-(1-(((1-(dimethylamino)cyclobutyl)methyl)amino)-5-fluoro-3-(((2R,7aS)-2-fluorotetrahydro-1H-pyrrolizin-7a(5H)-yl)methoxy)-8-methylfuro[3,2-n]quinazolin-6-yl)naphthalen-2-ol] | – | 7.98 µM | –
9 | Cc1cc2c(o1)c(-c1ccc(F)c3sc(N)c(C#N)c13)c(F)c1nc(OC[C@@]34CCCN3C[C@H](F)C4)nc(N3C[C@H]4CC[C@@H](C3)N4)c12 [Example 62, 4-(1-((1R,5S)-3,8-diazabicyclo[3.2.1]octan-3-yl)-5-fluoro-3-(((2R,7aS)-2-fluorotetrahydro-1H-pyrrolizin-7a(5H)-yl)methoxy)-8-methylfuro[3,2-f]quinazolin-6-yl)-2-amino-7-fluorobenzo[b]thiophene-3-carbonitrile] | 8.57 °C | 0.631 µM | 9.01 °C
10 | Cc1cc2c(o1)c(-c1ccc(F)c3sc(N)c(C#N)c13)c(F)c1nc(OC[C@@]34CCCN3C/C(=C\F)C4)nc(N3C[C@H]4CC[C@@H](C3)N4)c12 [Example 63, 4-(1-((1R,5S)-3,8-diazabicyclo[3.2.1]octan-3-yl)-5-fluoro-3-(((S,Z)-2-(fluoromethylene)tetrahydro-1H-pyrrolizin-7a(5H)-yl)methoxy)-8-methylfuro[3,2-f]quinazolin-6-yl)-2-amino-7-fluorobenzo[b]thiophene-3-carbonitrile] | 9.02 °C | 0.532 µM | 8.72 °C
11 | C#Cc1c(F)ccc2cc(O)cc(-c3c(F)c4nc(OC[C@@]56CCCN5C/C(=C\F)C6)nc(N5C[C@H]6CC[C@@H](C5)N6)c4c4cc(C)oc34)c12 [Example 64, 4-(1-((1R,5S)-3,8-diazabicyclo[3.2.1]octan-3-yl)-5-fluoro-3-(((S,Z)-2-(fluoromethylene)tetrahydro-1H-pyrrolizin-7a(5H)-yl)methoxy)-8-methylfuro[3,2-n]quinazolin-6-yl)-5-ethynyl-6-fluoronaphthalen-2-ol] | 11.39 °C | 0.062 µM | 15.24 °C
12 | Cn1cc2c(n1)c(-c1cc(O)cc3ccccc13)cc1nc(OC[C@@]34CCCN3C[C@H](F)C4)nc(N3C[C@H]4CC[C@@H](C3)N4)c12 [Example 68, 4-(9-((1R,5S)-3,8-diazabicyclo[3.2.1]octan-3-yl)-7-(((2R,7aS)-2-fluorotetrahydro-1H-pyrrolizin-7a(5H)-yl)methoxy)-2-methyl-2H-pyrazolo[4,3-f]quinazolin-4-yl)naphthalen-2-ol] | 1.90 °C | 9.02 µM | 5.75 °C
